Assay results taken from US20040024068A1, “Antimicrobial compounds” (priority 1998, published 2004).
Converted amounts (≈) assume the structure as drawn. Read-outs that look alike come from different tables or passages of the source.

Assays:
[1] = tested on: Mycobacterium smegmatis mc^2155 and InhA mutants; assay: MIC on agar plates by 2-fold serial dilutions, M. smegmatis strains; assay type: cell-based; details: for MIC: Mycolicibacterium smegmatis
[2] = tested on: E. coli strain AGT11 versus isogenic parent AG100; assay: Isoniazid resistance of E. coli in the presence of 250 μM hydrogen peroxide; assay type: cell-based, Escherichia coli; details: triclosan-resistant strain AGT11; 250 μM hydrogen peroxide present
[3] = tested on: E. coli K12 strain AG100 and triclosan resistant mutants; assay: Triclosan MIC by agar serial dilution plates (2.0 fold steps), AG100 and mutants selected on triclosan; assay type: cell-based, Escherichia coli; details: for MIC: agar dilution plates
[4] = tested on: hypersusceptible host strain AG100A bearing pBR322-derived plasmids; assay: Triclosan MIC encoded by plasmid clones in hypersusceptible host AG100A; assay type: cell-based; details: Escherichia coli
[5] = tested on: E. coli strains AG100, AG100A, AGT11, AGT11K; assay: Inhibition of growth rate in broth (liquid) culture; assay type: cell-based, Escherichia coli; details: for IC50: Escherichia coli, 1 h, 1 h after addition
[6] = tested on: E. coli strains AG100, AG100A, AGT11, AGT11K; assay: Cell lysis in broth (liquid) culture (loss of absorbance with loss of viable cfu); assay type: cell-based, Escherichia coli
E. coli K-12 derivatives = assay: microbe, parasite or virus in culture; assay type: cell-based, Escherichia coli; details: for MIC: Escherichia coli
[7] = tested on: clinical strains of E. coli; assay: Triclosan MIC of clinical strains from blood samples; assay type: cell-based; details: Escherichia coli
M. smegmatis = details: cited from earlier work
M. tuberculosis = details: cited from earlier work

NNC(=O)c1ccncc1 [isoniazid]
MIC ([1]; MC^2155): 7 µg/mL (≈ 51 µM) | relative MIC (S.D.) isoniazid (7H9) ([1]; strain mc^2155/pMD31::inhA^+): >64 | relative MIC (S.D.) isoniazid (7H9) ([1]; strain mc^2155 wild type): 1.0 | isoniazid resistance relative to isogenic parent AG100 [2]: several times

Oc1cc(Cl)ccc1Oc1ccc(Cl)cc1Cl [triclosan, 2,4,4′-trichlor-2′-hydroxydiphenyl ether]
MIC ([3]; Escherichia coli, strain AG100 (wild-type)): 0.28 µg/mL (≈ 0.967 µM) | MIC ([3]; Escherichia coli, strain AG100A (AG100 ΔacrAB::kan)): 0.018 µg/mL (≈ 0.0622 µM) | MIC ([3]; Escherichia coli, strain AGT11 (AG100 fabI G93V)): 41 µg/mL (≈ 142 µM) | MIC ([3]; Escherichia coli, strain AGT11K (AGT11 ΔacrAB::kan)): 2 to 4 µg/mL (≈ 6.91 to 13.8 µM) | MIC of strain divided by MIC of AG1000 ([3]; strain AG100 (fabI none), inactivated locus acrAB): 0.063 | MIC of strain divided by MIC of AG1000 ([3]; strain AG100 (fabI none), inactivated locus mar): 0.71 | MIC of strain divided by MIC of AG1000 ([3]; strain AG100 (fabI none), inactivated locus none): 1 | MIC ([3]; strain AG100 (wild-type)): 0.28 ± 0.04 µg/mL (≈ 0.967 µM) | MIC of strain divided by MIC of AG1000 ([3]; strain AGT7 (fabI mutation NI), inactivated locus none): 1.7 | MIC of strain divided by MIC of AG1000 ([3]; strain AGT7, inactivated locus acrAB): 0.071 | MIC of strain divided by MIC of AG1000 ([3]; strain AGT7, inactivated locus mar): 1.7 | MIC of strain divided by MIC of AG1000 ([3]; strain AGT8 (fabI mutation NI), inactivated locus none): 4 | MIC of strain divided by MIC of AG1000 ([3]; strain AGT8, inactivated locus acrAB): 0.25 | MIC of strain divided by MIC of AG1000 ([3]; strain AGT8, inactivated locus mar): 3.4 | MIC of strain divided by MIC of AG1000 ([3]; strain AGT9 (fabI mutation NI), inactivated locus none): 2.3 | MIC of strain divided by MIC of AG1000 ([3]; strain AGT9, inactivated locus acrAB): 0.32 | MIC of strain divided by MIC of AG1000 ([3]; strain AGT9, inactivated locus mar): 2.3 | MIC ([3]; strain AGT11K (AGT11 ΔacrAB::kan)): 3.2 µg/mL (≈ 11.1 µM) | MIC of strain divided by MIC of AG1000 ([3]; strain AGT21 (fabI G93V), inactivated locus acrAB): 11.4 | MIC of strain divided by MIC of AG1000 ([3]; strain AGT21 (fabI G93V), inactivated locus mar): 145 | MIC of strain divided by MIC of AG1000 ([3]; strain AGT21 (fabI G93V), inactivated locus none): 145 | MIC of strain divided by MIC of AG1000 ([3]; strain AGT23 (fabI M159T), inactivated locus acrAB): 1.7 | MIC of strain divided by MIC of AG1000 ([3]; strain AGT23 (fabI M159T), inactivated locus none): 11.4 | MIC of strain divided by MIC of AG1000 ([3]; strain AGT25 (fabI F203L), inactivated locus acrAB): 0.57 | MIC of strain divided by MIC of AG1000 ([3]; strain AGT25 (fabI F203L), inactivated locus none): 4.6 | MIC ([4]; clones pLYT1 through pLYT10 (AGT11 library) in hypersensitive strain AG100A): ~4 µg/mL (≈ 13.8 µM) | MIC ([4]; vector alone (pBR322) in AG100A): 0.005 to 0.02 µg/mL (≈ 0.0173 to 0.0691 µM) | IC50 ([5]; read-out: Concentration of triclosan which inhibited growth rate 50%, strain AG100 (wild type), OD530): ~0.15 µg/mL (≈ 0.518 µM) | IC50 ([5]; read-out: Concentration of triclosan which inhibited growth rate 50%, strain AG100A (ΔacrAB)): ~0.02 µg/mL (≈ 0.0691 µM) | Concentration of triclosan which inhibited growth rate 90% ([5]; strain AG100 (wild type)): 0.6 µg/mL | Concentration of triclosan which inhibited growth rate 90% ([5]; strain AG100A (ΔacrAB)): 0.05 µg/mL | Concentration of triclosan which caused lysis ([6]; strain AG100 (wild type), within 2 h): 8 µg/mL | amount of triclosan required to give lysis ([6]; strains AG100, AG100A and AGT11K together): 2 to 8 µg/mL | MIC ([1]; MC^2155, mc^2155, triclosan in 7H9): 14 µg/mL (≈ 48.4 µM) | MIC ([1]; MC^2155, mc^2155, triclosan in LB, mean (+/− S.D.) of 4-5 experiments): 0.61 µg/mL (≈ 2.11 µM) | MIC (E. coli K-12 derivatives; AG100, span of Tables 3-5, read-out: MIC (determined on agar)): 0.17 to 0.28 µg/mL (≈ 0.587 to 0.967 µM) | MIC (E. coli K-12 derivatives; strain AG100, mean of two to five determinations, read-out: MIC): 0.17 µg/mL (≈ 0.587 µM) | MIC (E. coli K-12 derivatives; strain GC4488, read-out: MIC): 0.08 µg/mL (≈ 0.276 µM) | MIC (E. coli K-12 derivatives; strain HH180, read-out: MIC): 0.07 µg/mL (≈ 0.242 µM) | change of triclosan MIC by overexpression of acrAB (E. coli K-12 derivatives; strain AG100B (mutation in acrR) vs AG100): doubled | MIC ([7]; read-out: mean triclosan MIC, multiply resistant clinical strains E3, E19, HO99 overexpressing marA or soxS): 0.33 µg/mL | MIC ([7]; read-out: mean triclosan MIC, remaining 26 multiply resistant clinical strains overexpressing neither marA or soxS): 0.13 µg/mL | MIC ([7]; read-out: mean triclosan MIC, 14 of 15 antibiotic-susceptible clinical strains (Series S)): 0.09 µg/mL | MIC ([7]; read-out: triclosan MIC, multiply resistant clinical strain E10, overexpressing neither marA nor soxS): 0.38 µg/mL | MIC ([7]; read-out: triclosan MIC, multiply resistant clinical strain HO 17, overexpressing marA): 0.15 µg/mL | MIC ([7]; read-out: triclosan MIC, susceptible clinical strain S20, overexpressing marA): 0.27 µg/mL | susceptibility to triclosan (M. smegmatis): susceptible | susceptibility to triclosan (M. tuberculosis): not sensitive
